These molecules were tested against BTK (Homo sapiens (Human), UniProt Q06187) (assay: In vitro BTK kinase assay: BTK-POLYGAT-LS ASSAY). Settings: not given.
BTK, sequence (Q06187 whole entry): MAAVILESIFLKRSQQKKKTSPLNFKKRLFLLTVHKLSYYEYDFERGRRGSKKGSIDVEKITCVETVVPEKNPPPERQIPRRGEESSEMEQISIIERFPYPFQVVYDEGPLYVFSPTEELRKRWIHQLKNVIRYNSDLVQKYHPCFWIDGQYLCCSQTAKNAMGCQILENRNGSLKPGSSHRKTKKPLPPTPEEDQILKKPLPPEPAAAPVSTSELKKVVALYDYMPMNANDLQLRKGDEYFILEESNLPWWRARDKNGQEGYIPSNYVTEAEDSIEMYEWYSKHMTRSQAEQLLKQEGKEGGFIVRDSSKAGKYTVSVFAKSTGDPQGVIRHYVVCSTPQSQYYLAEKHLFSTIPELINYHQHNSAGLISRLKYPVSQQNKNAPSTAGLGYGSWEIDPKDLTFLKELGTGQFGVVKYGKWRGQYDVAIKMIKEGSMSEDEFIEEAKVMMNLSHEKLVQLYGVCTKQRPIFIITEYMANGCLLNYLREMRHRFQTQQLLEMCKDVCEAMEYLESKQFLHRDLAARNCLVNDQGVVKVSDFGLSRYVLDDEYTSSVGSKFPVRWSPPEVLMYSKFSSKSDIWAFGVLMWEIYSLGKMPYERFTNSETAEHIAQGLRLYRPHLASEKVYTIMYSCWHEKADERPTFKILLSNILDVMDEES

Row | SMILES | IC50
1 | O=C(Nc1cccc(C2CCCN(c3ncnc4[nH]ccc34)C2)c1)Nc1ccccc1N1CCC(F)(F)C1 (centres unmarked) [compound 168] | 100 to 999 nM
2 | O=C(NC[C@H]1CCCC[C@H]1O)Nc1cccc(C2CCCN(c3ncnc4[nH]ccc34)C2)c1 (some centres unmarked) [compound 218] | 1000 to 10000 nM
3 | O=C(Nc1ccccc1)N[C@@H]1CCN(C2CCCN(c3ncnc4[nH]ccc34)C2)C1 (some centres unmarked) [compound 220] | 1000 to 10000 nM
4 | CCC(CC)CNC(=O)Nc1cccc(C2CCCN(c3ncnc4[nH]ccc34)C2)c1 (centres unmarked) [compound 180] | 100 to 999 nM
5 | N[C@H]1CCN(c2ccccc2NC(=O)Nc2cccc(C3CCCN(c4ncnc5[nH]ccc45)C3)c2)C1 (some centres unmarked) [compound 169] | 100 to 999 nM
6 | Nc1cc(N2CCCC(c3cccc(NC(=O)Nc4ccccc4)c3)C2)ncn1 (centres unmarked) [Cmpd 94, 1-(3-(1-(6-aminopyrimidin-4-yl)piperidin-3-yl)phenyl)-3-phenylurea] | 1000 to 10000 nM
7 | O=C(Nc1cccc(C2CCCN(c3ncnc4[nH]ccc34)C2)c1)N[C@H](CO)C1CCCCC1 (some centres unmarked) [compound 203] | 1000 to 10000 nM
8 | CCc1cccc(CC)c1NC(=O)Nc1cccc(C2CCCN(c3ncnc4[nH]ccc34)C2)c1 (centres unmarked) [Cmpd 33, 1-(3-(1-(7H-pyrrolo[2,3-d]pyrimidin-4-yl)piperidin-3-yl)phenyl)-3-(2,6-diethylphenyl)urea] | 100 to 999 nM
9 | C[C@@H](NC(=O)Nc1cccc(C2CCCN(c3ncnc4[nH]ccc34)C2)c1)c1ccccc1 (stereo partly drawn) [Cmpd 43, 1-(3-(1-(7H-pyrrolo[2,3-d]pyrimidin-4-yl)piperidin-3-yl)phenyl)-3-((R)-1-phenylethyl)urea] | 1000 to 10000 nM
10 | CNc1ncnc(N2CCC[C@@H](N3CCCC(Nc4cc(F)cc(Cl)c4)C3=O)C2)c1F (stereo partly drawn) [compound 286, (3′R)-3-(3-Chloro-5-fluorophenylamino)-1′-(5-fluoro-6-(methylamino)pyrimidin-4-yl)-1,3′-bipiperidin-2-one] | 1000 to 10000 nM
11 | O=C(Nc1ccsc1)Nc1cccc(C2CCCN(c3ncnc4[nH]ccc34)C2)c1 (centres unmarked) [Cmpd 32, 1-(3-(1-(7H-pyrrolo[2,3-d]pyrimidin-4-yl)piperidin-3-yl)phenyl)-3-(thiophen-3-yl)urea] | 1000 to 10000 nM
12 | O=C(Nc1cccc(C2CCN(c3ncnc4[nH]ccc34)C2)c1)Nc1ccccc1N1CCCC1 (centres unmarked) [compound 171] | 100 to 999 nM
13 | c1ccc(Nc2nc3ccc(C4CCCN(c5ncnc6[nH]ccc56)C4)cc3[nH]2)cc1 (centres unmarked) [compound 105, 6-(1-(7H-pyrrolo[2,3-d]pyrimidin-4-yl)piperidin-3-yl)-N-phenyl-1H-benzo[d]imidazol-2-amine] | 1000 to 10000 nM
14 | O=C(Nc1cccc(C2CCCN(c3ncnc4[nH]ccc34)C2)c1)Nc1cccc2cc[nH]c12 (centres unmarked) [compound 211] | 1000 to 10000 nM
15 | O=C(Nc1ccccc1)Nc1cccc(C2CCN(c3ncnc4[nH]ccc34)C2)c1 (centres unmarked) [Cmpd 28, 1-(3-(1-(7H-pyrrolo[2,3-d]pyrimidin-4-yl)pyrrolidin-3-yl)phenyl)-3-phenylurea] | 1000 to 10000 nM
16 | O=C(Nc1cccc(C2CN(c3ncnc4[nH]ccc34)CCN2CCO)c1)Nc1ccccc1N1CCCC1 (centres unmarked) [compound 124, 1-(3-(1-(2-hydroxyethyl)-4-(7H-pyrrolo[2,3-d]pyrimidin-4-yl)piperazin-2-yl)phenyl)-3-(2-(pyrrolidin-1-yl)phenyl)urea] | 100 to 999 nM
17 | O=C(Nc1cccc(C2CCCN(c3ncnc4[nH]ccc34)C2)c1)Nc1ccccc1N1C[C@@H](O)[C@H](O)C1 (some centres unmarked) [compound 158] | 100 to 999 nM
18 | O=C(Nc1cc(C2CCCN(c3ncnc4[nH]ccc34)C2)ccc1OC(F)(F)F)c1ccccc1Cl (centres unmarked) [Cmpd 86, N-(5-(1-(7H-pyrrolo[2,3-d]pyrimidin-4-yl)piperidin-3-yl)-2-(trifluoromethoxy)phenyl)-2-chlorobenzamide] | 100 to 999 nM
19 | O=C(Nc1cccc(C2CCCN(c3ncnc4[nH]ccc34)C2)c1)Nc1cccnc1F (centres unmarked) [compound 197] | 1000 to 10000 nM

Same assay, conditions: read-out: IC50 (10 uM ATP)

Row | SMILES | IC50
20 | Nc1ncnc(N2CCC[C@@H](N3CCCC(Nc4cc(Cl)cc(C(F)(F)F)c4)C3=O)C2)c1F (stereo partly drawn) [compound 308, (3′R)-1′-(6-Amino-5-fluoropyrimidin-4-yl)-3-(3-chloro-5-(trifluoromethyl)phenylamino)-1,3′-bipiperidin-2-one] | < 100 nM

Same assay, conditions: read-out: IC50 (10 uM ATP); 10 uM ATP; in vitro Btk kinase assay, Example 41

Row | SMILES | IC50
21 | Cc1ccc(NC(=O)c2ccccc2)cc1C1CCCN(c2ncnc3[nH]ccc23)C1 (centres unmarked) [Cmpd 80, N-(3-(1-(7H-pyrrolo[2,3-d]pyrimidin-4-yl)piperidin-3-yl)-4-methylphenyl)benzamide] | > 10000 nM
22 | N[C@H](C(=O)Nc1cccc(C2CCCN(c3ncnc4[nH]ccc34)C2)c1)c1ccccc1 (stereo partly drawn) [Cmpd 20, (2S)—N-(3-(1-(7H-pyrrolo[2,3-d]pyrimidin-4-yl)piperidin-3-yl)phenyl)-2-amino-2-phenylacetamide] | > 10000 nM
23 | Cc1cc(NC(=O)Nc2cccc(C3CCCN(c4ncnc5[nH]ccc45)C3)c2)n(CCN(C)C)n1 (centres unmarked) [compound 230] | > 10000 nM
24 | O=C(Nc1csc(C2CCCN(c3ncnc4[nH]ccc34)C2)n1)Nc1ccccc1N1CCCC1 (centres unmarked) [compound 107, 1-(2-(1-(7H-pyrrolo[2,3-d]pyrimidin-4-yl)piperidin-3-yl)thiazol-4-yl)-3-(2-(pyrrolidin-1-yl)phenyl)urea] | < 100 nM
25 | O=C(Nc1cccc(C2CCCN(c3ncnc4[nH]ccc34)C2)c1)c1ccccc1Cl (centres unmarked) [Cmpd 5, N-(3-(1-(7H-pyrrolo[2,3-d]pyrimidin-4-yl)piperidin-3-yl)phenyl)-2-chlorobenzamide] | > 10000 nM
26 | O=C1C(NC2CCCCC2)CCCN1[C@@H]1CCCN(c2ncnc3[nH]ccc23)C1 (stereo partly drawn) [compound 304, (3′R)-3-(Cyclohexylamino)-1′-(7H-pyrrolo[2,3-d]pyrimidin-4-yl)-1,3′-bipiperidin-2-one] | > 10000 nM
27 | Cc1ccc(NC(=O)Nc2ccccc2)cc1C1CCCN(c2ncnc3[nH]ccc23)C1 (centres unmarked) [Cmpd 79, 1-(3-(1-(7H-pyrrolo[2,3-d]pyrimidin-4-yl)piperidin-3-yl)-4-methylphenyl)-3-phenylurea] | > 10000 nM
28 | C[C@@H]1CCCN1c1cccc(F)c1NC(=O)Nc1cccc(C2CCCN(c3ncnc4[nH]ccc34)C2)c1 (stereo partly drawn) [Cmpd 52, 1-(3-(1-(7H-pyrrolo[2,3-d]pyrimidin-4-yl)piperidin-3-yl)phenyl)-3-(2-fluoro-6-((R)-2-methylpyrrolidin-1-yl)phenyl)urea] | < 100 nM
29 | FC(F)(F)c1ccc(Nc2cccc(C3CCCN(c4ncnc5[nH]ccc45)C3)c2)nc1 (centres unmarked) [compound 142, N-(3-(1-(7H-pyrrolo[2,3-d]pyrimidin-4-yl)piperidin-3-yl)phenyl)-5-(trifluoromethyl)pyridin-2-amine] | > 10000 nM
30 | O=C(Nc1cccc(C2CCCN(c3ncnc4[nH]ccc34)C2)c1)Nc1ccc(F)cc1N1CCCC1 (centres unmarked) [compound 147] | < 100 nM
31 | CC(C)(C)NC1CCCN([C@@H]2CCCN(c3ncnc(N)c3F)C2)C1=O (stereo partly drawn) [compound 290, (3′R)-1′-(6-Amino-5-fluoropyrimidin-4-yl)-3-(tert-butylamino)-1,3′-bipiperidin-2-one] | > 10000 nM
32 | O=C(Nc1ccccc1)NC1CN(C2CCCN(c3ncnc4[nH]ccc34)C2)C1 (centres unmarked) [compound 234] | > 10000 nM
33 | O=C(Nc1cccc(C2CCCN(c3ncnc4[nH]ccc34)C2)c1)Nc1ccccc1N1CCC[C@H]1CO (some centres unmarked) [compound 152] | < 100 nM
34 | CC(=O)N1CCCC(CNC(=O)Nc2cccc(C3CCCN(c4ncnc5[nH]ccc45)C3)c2)C1 (centres unmarked) [compound 240] | > 10000 nM
35 | Cc1nn(C)c(C)c1NC(=O)Nc1cccc(C2CCCN(c3ncnc4[nH]ccc34)C2)c1 (centres unmarked) [compound 244] | > 10000 nM
36 | Nc1ncnc(N2CCC[C@@H](N3CCCC[C@@H](Nc4cc(F)cc(Cl)c4)C3=O)C2)c1F [compound 346, (R)-1-((R)-1-(6-amino-5-fluoropyrimidin-4-yl)piperidin-3-yl)-3-(3-chloro-5-fluorophenylamino)azepan-2-one] | < 100 nM
37 | Nc1ncnc(N2CCC[C@@H](N3CCCC(Nc4ccccc4S(=O)(=O)C4CCCCC4)C3=O)C2)c1F (stereo partly drawn) [compound 320, (3′R)-1′-(6-Amino-5-fluoropyrimidin-4-yl)-3-(2-(cyclohexylsulfonyl)phenylamino)-1,3′-bipiperidin-2-one] | < 100 nM
38 | O=C1C(Nc2ccccc2S(=O)(=O)N2CCCCC2)CCCN1[C@@H]1CCCN(c2ncnc3[nH]ccc23)C1 (stereo partly drawn) [compound 318, (3′R)-3-(2-(Piperidin-1-ylsulfonyl)phenylamino)-1′-(7H-pyrrolo[2,3-d]pyrimidin-4-yl)-1,3′-bipiperidin-2-one] | < 100 nM
39 | Nc1ncnc(N2CC[C@@H](F)[C@@H](N3CCC[C@@H](Nc4cc(F)cc(Cl)c4)C3=O)C2)c1F [compound 341, (3R,3′S,4′R)-1′-(6-amino-5-fluoropyrimidin-4-yl)-3-(3-chloro-5-fluorophenylamino)-4′-fluoro-1,3′-bipiperidin-2-one] | < 100 nM
40 | O=C(NCC1CCCNC1)Nc1cccc(C2CCCN(c3ncnc4[nH]ccc34)C2)c1 (centres unmarked) [compound 229] | > 10000 nM
41 | O=C1C(NC2CCCC2)CCCN1[C@@H]1CCCN(c2ncnc3[nH]ccc23)C1 (stereo partly drawn) [compound 303, (3′R)-3-(Cyclopentylamino)-1′-(7H-pyrrolo[2,3-d]pyrimidin-4-yl)-1,3′-bipiperidin-2-one] | > 10000 nM
42 | Nc1ncnc(N2CCOCC(N3CCCC(Nc4cc(Cl)cc(Cl)c4)C3=O)C2)c1F (centres unmarked) [compound 344] | < 100 nM
43 | Nc1ncnc(N2CC[C@@H](O)[C@H](N3CCC[C@@H](Nc4cc(Cl)cc(Cl)c4)C3=O)C2)c1F [compound 327, trans (3R)-1′-(6-Amino-5-fluoropyrimidin-4-yl)-3-(3,5-dichlorophenylamino)-4′-hydroxy-1,3′-bipiperidin-2-one] | < 100 nM
44 | CNc1cc(N2CCCC(c3cccc(NC(=O)Nc4ccccc4)c3)C2)ncn1 (centres unmarked) [Cmpd 95, 1-(3-(1-(6-(methylamino)pyrimidin-4-yl)piperidin-3-yl)phenyl)-3-phenylurea] | > 10000 nM
45 | O=C(NCC1CCNCC1)Nc1cccc(C2CCCN(c3ncnc4[nH]ccc34)C2)c1 (centres unmarked) [compound 231] | > 10000 nM
46 | CNC(=O)Nc1cccc(C2CCCN(c3ncnc4[nH]ccc34)C2)c1 (centres unmarked) [compound 262] | > 10000 nM
47 | Cc1noc(C)c1NC(=O)Nc1cccc(C2CCCN(c3ncnc4[nH]ccc34)C2)c1 (centres unmarked) [compound 254] | > 10000 nM

Source: US9790229B2, “Bruton's tyrosine kinase inhibitors” (priority 2009, dated 2017)
